Reference: US4065557A, “Amino sugars and their use in improving the meat:fat ratio in animals” (Bayer Aktiengesellschaft, priority 1974, dated 1977)

Experiments:
saccharase = target: T1, saccharase (Sus scrofa, UniProt P56729); assay: In vitro saccharase test; assay type: biochemical, pig; conditions: for saccharase inhibitor specific activity: sucrose, pH 6.0, 35° C
T1 construct: from tissue; host or cells: mucous membrane of the small intestine of the pig, solubilized according to Borgstrom and Dahlquist 1958
Protocol: One saccharase inhibitor unit (SIU) is defined as the amount of inhibitor which inhibits two saccharase units to the extent of 50%. One saccharase unit (SU) is the amount of enzyme which under the test conditions specified splits 1 μmol of sucrose to glucose and fructose per minute. The μmols of glucose formed are determined quantitatively by means of the glucose oxidase reaction under conditions under which a further splitting of the sucrose by the saccharase no longer takes place. To carry out the test, 0.05 ml of solubilized saccharase [from the mucous membrane of the small intestine of the pig, according to B. Borgstrom, A. Dahlquist, Acta Chem. Scand. […] The mixture is equilibrated for 10 minutes at 35° C and 0.1 ml of an 0.05 M sucrose solution in 0.1 m sodium maleate buffer of pH 6.0, pre-warmed to 35° C, is then added. The mixture is incubated for 20 minutes at 35° C, the saccharase reaction is stopped by addition of 1 ml of glucose oxidase reagent, and the incubation is continued for a further 30 minutes at 35° C. […] Thereafter, 1 ml of 50% strength H2 SO4 is added and a measurement carried out at 545 nm against a corresponding blank.

pancreas-α-amylase = target: T2, pancreas-α-amylase (Sus scrofa, UniProt P00690); assay: In vitro amylase test; assay type: biochemical; conditions: isolated product; starch, pH 6.9, 35° C
T2 sequence (P00690 16-511): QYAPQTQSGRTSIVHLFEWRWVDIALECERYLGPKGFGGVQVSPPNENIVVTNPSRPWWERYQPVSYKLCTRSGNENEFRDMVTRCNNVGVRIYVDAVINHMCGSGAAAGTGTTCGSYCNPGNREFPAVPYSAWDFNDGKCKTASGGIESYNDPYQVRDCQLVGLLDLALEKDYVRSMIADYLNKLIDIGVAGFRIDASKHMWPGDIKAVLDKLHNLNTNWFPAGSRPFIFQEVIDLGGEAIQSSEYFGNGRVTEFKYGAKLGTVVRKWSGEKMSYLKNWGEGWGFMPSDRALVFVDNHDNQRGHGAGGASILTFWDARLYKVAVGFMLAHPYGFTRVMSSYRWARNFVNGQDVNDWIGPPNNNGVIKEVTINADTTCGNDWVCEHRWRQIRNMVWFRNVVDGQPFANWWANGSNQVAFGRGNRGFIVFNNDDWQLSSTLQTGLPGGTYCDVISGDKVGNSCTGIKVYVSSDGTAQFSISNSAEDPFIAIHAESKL
Protocol: One amylase unit (AU) is the amount of enzyme which under the test conditions specified below splits 1 μequivalent of glucoside bonds in the starch per minute. […] To carry out the test, 0.1 ml of amylase solution (20-22 AU/ml) are mixed with 0-10 μg of inhibitor or 0-20 μl of the solution to be tested in 0.4 ml of 0.02 M sodium glycerophosphate buffer/0.001 M CaCl2, pH 6.9, and the mixture is equilibrated for 10-20 minutes in a water bath at 35° C. […] To develop the color, the batch is heated for 5 minutes on a boiling water bath and then cooled, and 10 ml of distilled water are added. The extinction at 540 nm is measured against a correspondingly made-up blank without amylase. […] The percentage inhibition is plotted as a function of the quotient [formula]

Solubility = assay type: physicochemical
starch digestion = assay: In vivo starch digestion (starch feeding test)

T1 sequence (P56729 with tags, fused parts or gaps limits assumed): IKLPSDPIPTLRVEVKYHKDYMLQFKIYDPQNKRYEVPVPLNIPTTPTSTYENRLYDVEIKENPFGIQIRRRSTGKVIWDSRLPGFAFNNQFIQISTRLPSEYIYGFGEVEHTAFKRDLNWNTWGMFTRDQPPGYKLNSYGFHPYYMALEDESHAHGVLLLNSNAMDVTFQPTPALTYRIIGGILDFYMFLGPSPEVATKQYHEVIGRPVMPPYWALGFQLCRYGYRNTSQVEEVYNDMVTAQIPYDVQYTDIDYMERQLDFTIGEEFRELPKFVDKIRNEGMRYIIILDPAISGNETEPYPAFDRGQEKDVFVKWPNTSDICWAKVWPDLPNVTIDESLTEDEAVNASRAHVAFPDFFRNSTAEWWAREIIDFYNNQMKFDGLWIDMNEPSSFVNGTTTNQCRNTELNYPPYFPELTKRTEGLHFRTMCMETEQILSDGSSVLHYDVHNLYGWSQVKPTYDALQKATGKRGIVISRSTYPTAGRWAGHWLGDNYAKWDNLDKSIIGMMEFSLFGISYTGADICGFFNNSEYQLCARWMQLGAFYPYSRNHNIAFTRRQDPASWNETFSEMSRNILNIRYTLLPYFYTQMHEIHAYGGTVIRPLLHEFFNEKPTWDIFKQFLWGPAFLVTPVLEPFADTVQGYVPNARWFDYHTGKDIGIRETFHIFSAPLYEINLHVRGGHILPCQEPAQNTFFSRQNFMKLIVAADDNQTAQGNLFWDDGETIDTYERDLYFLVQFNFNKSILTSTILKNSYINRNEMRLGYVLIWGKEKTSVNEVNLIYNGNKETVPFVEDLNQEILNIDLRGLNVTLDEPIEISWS
T1 sequence (P56729 with tags, fused parts or gaps partner limits assumed): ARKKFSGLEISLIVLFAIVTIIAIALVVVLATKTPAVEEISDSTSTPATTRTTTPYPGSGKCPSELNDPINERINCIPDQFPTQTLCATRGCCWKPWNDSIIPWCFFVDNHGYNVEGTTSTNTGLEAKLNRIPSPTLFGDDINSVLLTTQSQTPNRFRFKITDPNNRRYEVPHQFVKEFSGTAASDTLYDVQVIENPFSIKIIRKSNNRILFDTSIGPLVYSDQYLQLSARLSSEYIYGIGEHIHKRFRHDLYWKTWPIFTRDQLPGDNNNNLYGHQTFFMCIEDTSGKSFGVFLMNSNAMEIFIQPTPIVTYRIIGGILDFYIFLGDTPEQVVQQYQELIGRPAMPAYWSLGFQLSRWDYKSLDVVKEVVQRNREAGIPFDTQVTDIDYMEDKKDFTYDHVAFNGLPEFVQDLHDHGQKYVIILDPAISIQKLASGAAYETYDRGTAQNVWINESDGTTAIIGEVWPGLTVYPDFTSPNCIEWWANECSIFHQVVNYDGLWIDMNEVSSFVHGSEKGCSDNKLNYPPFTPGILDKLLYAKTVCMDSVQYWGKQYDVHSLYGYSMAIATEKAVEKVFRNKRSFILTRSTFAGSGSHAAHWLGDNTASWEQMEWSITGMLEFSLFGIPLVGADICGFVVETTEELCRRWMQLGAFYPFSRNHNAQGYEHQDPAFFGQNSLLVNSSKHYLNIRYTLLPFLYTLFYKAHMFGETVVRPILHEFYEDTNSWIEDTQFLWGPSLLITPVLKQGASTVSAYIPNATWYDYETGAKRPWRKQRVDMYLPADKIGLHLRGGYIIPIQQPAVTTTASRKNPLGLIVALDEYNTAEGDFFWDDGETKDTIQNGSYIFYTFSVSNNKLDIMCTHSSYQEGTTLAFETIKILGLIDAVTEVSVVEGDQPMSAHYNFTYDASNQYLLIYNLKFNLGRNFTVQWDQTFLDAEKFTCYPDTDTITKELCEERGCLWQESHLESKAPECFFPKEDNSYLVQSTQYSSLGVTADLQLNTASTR

in vitro saccharase inhibiting activity (saccharase; isomer isolated on Dowex 50 W X 4)	amylase inhibitor specific activity (pancreas-α-amylase)	solubility (Solubility; water, dimethylformamide, dimethylsulfoxide, methanol and hot ethanol)	saccharase inhibition relative to the derivative having two units (saccharase; in vitro)	saccharase inhibitor specific activity (saccharase)	saccharase inhibitor specific activity (saccharase; listed as compound with one glucose unit)	solubility in water (Solubility; amorphous solid)	in vitro saccharase inhibition (in words) (saccharase; in vitro)	saccharase inhibitor specific activity (saccharase; listed as compound with 2 glucose units)	saccharase inhibitor specific activity (saccharase; listed as compound with 2 units)	saccharase inhibitor specific activity (saccharase; listed as compound with two glucose units)	SMILES	in vivo inhibition of starch digestion (in words) (starch digestion)
19,000 SIE/g											C[C@H]1O[C@H](O[C@H]2[C@H](O)[C@@H](O)[C@@H](O[C@H]3[C@H](O)[C@@H](O)[C@@H](O[C@H]4[C@H](O)[C@@H](O)C(O)O[C@@H]4CO)O[C@@H]3CO)O[C@@H]2CO)[C@H](O)[C@@H](O)[C@@H]1N[C@H]1C=C(CO)[C@@H](O)[C@H](O)[C@H]1O (stereo partly drawn) [isomer of Formula V, O-{4,5-bisdesoxy-4-[1S-(1,4,6/5)-4,5,6-trihydroxy-3-hydroxymethylcyclohex-2-en-1-ylamino]-α-D-glucopyranosyl}-(1→4)-O-α-D-glucopyranosyl-(1→4)-O-α-D-glucopyranosyl-(1→4)-D-glycopyranose]	
	0.3 × 10^6 AIU/g	good solubility	only half as much	30,000 SIU/g	35,000 SIU/g						C[C@H]1O[C@H](O[C@H]2[C@H](O)[C@@H](O)C(O)O[C@@H]2CO)[C@H](O)[C@@H](O)[C@@H]1N[C@H]1C=C(CO)[C@@H](O)[C@H](O)[C@H]1O (stereo partly drawn) [compound having one glucose unit, O-{4,6-bisdesoxy-4-[1 S-(1,4,6/5)-4,5,6-trihydroxy-3-hydroxymethylcyclohex-2-en-1-ylamino]-α-D-glucopyranosyl}-(1→4)-D-glucopyranose]	much higher than would be expected from in vitro amylase inhibition
	0.3 × 10^6 AIU/g			50,000 SIU/g		readily water-soluble	most pronounced	60,000 SIU/g	68,000 SIU/g	65,000 SIU/g	C[C@H]1O[C@H](O[C@H]2[C@H](O)[C@@H](O)[C@@H](O[C@H]3[C@H](O)[C@@H](O)C(O)O[C@@H]3CO)O[C@@H]2CO)[C@H](O)[C@@H](O)[C@@H]1N[C@H]1C=C(CO)[C@@H](O)[C@H](O)[C@H]1O (stereo partly drawn) [compound having 2 glucose units, O-{4,6-bisdesoxy-4-[1 S-(1,4,6/5)-4,5,6-trihydroxy-3-hydroxymethylcyclohex-2-en-1-ylamino]-α-D-glucopyranosyl}-(1→4)-O-α-D-glucopyranosyl-(1→4)-D-glucopyranose]	much higher than would be expected from in vitro amylase inhibition
